Assay results from patent US5254565A, “Quinoline derivatives, their production and use” (priority 1988, dated 1993).

Key:
[1] = biological target: T1, Acyl-CoA : cholesterol acyltransferase (ACAT) (Rattus norvegicus, UniProt Q7TQM4); experiment: Acyl-CoA : cholesterol acyltransferase (ACAT) inhibitory activity: production of labeled cholesterol ester from [1-^14 C] oleoyl-CoA and endogenous cholesterol; assay type: biochemical; conditions: read-out: ACAT Inhibition Rate; for inhibition at 1 µM: 10^-6 M test compound; for inhibition at 0.01 µM: 10^-8 M test compound
T1 construct: from the mucosal microsome fraction of the small intestine of male, 6-week old Sprague-Dawley rats; from tissue; host or cells: mucosal microsome fraction of the small intestine of male 6-week old Sprague-Dawley rats, fasted for 20 hours
T1 sequence (Q7TQM4 1-524): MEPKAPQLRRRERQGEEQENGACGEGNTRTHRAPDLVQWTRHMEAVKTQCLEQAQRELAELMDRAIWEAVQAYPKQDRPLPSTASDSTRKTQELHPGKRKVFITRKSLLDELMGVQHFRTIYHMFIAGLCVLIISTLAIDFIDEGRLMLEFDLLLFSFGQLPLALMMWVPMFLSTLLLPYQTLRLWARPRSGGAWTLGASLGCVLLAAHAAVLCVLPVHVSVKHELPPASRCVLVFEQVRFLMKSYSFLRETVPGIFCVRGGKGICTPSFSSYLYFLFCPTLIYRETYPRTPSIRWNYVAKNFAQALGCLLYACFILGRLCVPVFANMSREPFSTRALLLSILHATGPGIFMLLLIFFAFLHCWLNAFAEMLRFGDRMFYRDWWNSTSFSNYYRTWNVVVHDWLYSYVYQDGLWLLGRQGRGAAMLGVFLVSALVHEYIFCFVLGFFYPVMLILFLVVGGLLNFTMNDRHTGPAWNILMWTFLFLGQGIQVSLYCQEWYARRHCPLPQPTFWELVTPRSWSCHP
Description: 1. Acyl-CoA : cholesterol acyltransferase (ACAT) inhibitory activity.
The enzyme ACAT was prepared by the method of Heider et al. described in Journal of Lipid Research, Vol. 24, page 1127 (1982), from the mucosal microsome fraction of the small intestine of male, 6-week old Sprague-Dawley rats which had been fasted for 20 hours.
ACAT activity was calculated by the method of Helgerud et al. described in Journal of Lipid Research, Vol. 22, page 271 (1981), namely, by measuring the amount of the labeled cholesterol ester produced from [1-^14 C] oleoyl-CoA and endogenous cholesterol.
Inhibition rates (%) of the production of the labeled cholesterol ester wherein 10^-6 M-10^-8 M of test compounds were added are shown as an index of ACAT inhibitory activity in Table 1.

plasma cholesterol = experiment: Plasma cholesterol lowering activity in cholesterol fed rat; assay type: in vivo, rat (7-week old, male Sarague Dawley rats); conditions: diet containing 0.0005% of test compound for 4 days; mean ± standard deviation; control 240 ± 85; *p < 0.05 (t test vs control group); Dose (mg/kg/day): 23 0.40 ± 0.03, 30 0.45 ± 0.02, 32 0.43 ± 0.04
Description: 2. Plasma cholesterol lowering activity in cholesterol fed rat.
1% Cholesterol diet (containing 0.5% of cholic acid and 5% of olive oil) was fed to 7-week old, male Sarague Dawley rats for 3 days. The rats were grouped by the plasma cholesterol level, and fed by the same diet containing 0.0005% of a test compound for 4 days. Blood was collected from rats during 8:30-10:00 am at the fed state, and the plasma cholesterol level was measured enzymatically. The amount of a test compound consumed by rats was calculated on the basis of the amount of the diet consumed by the rats.

inhibition at 1 µM [1] [%]	inhibition at 0.1 µM ([1]; 10^-7 M test compound) [%]	inhibition at 0.01 µM [1] [%]	Structure (SMILES)	Plasma Cholesterol (plasma cholesterol) [mg/dL]
98.5			Cc1ccc2ncc(NC(=O)Nc3ccc(F)cc3F)c(-c3ccccc3Cl)c2c1 [Example 30, 4-(2-Chlorophenyl)-3-[3-(2,4-difluorophenyl)ureido]-6-methylquinoline]	143 ± 21
98	94.1	34.3	O=C(Nc1ccc(F)cc1F)Nc1cnc2ccc(Cl)cc2c1-c1ccccc1Cl [Example 23, 6-Chloro-4-(2-chlorophenyl)-3-[3-(2,4-difluorophenyl)ureido]quinoline]	126 ± 33
98.9		52.1	Cc1cc(C)c2ncc(NC(=O)Nc3ccc(F)cc3F)c(-c3ccccc3Cl)c2c1 [Example 32, 4-(2-Chlorophenyl)-3-[3-(2,4-difluorophenyl)ureido]-6,8-dimethylquinoline]	119 ± 46
87.8			CSc1ccc2ncc(NC(=O)Nc3ccc(F)cc3F)c(-c3ccccc3)c2c1 [Example 37, 3-[3-(2,4-Difluorophenyl)ureido]-6-methylthio-4-phenylquinoline]	
97.6			Cc1cc(Cl)c2ncc(NC(=O)Nc3ccc(F)cc3F)c(-c3ccccc3Cl)c2c1 [Example 55, 8-Chloro-4-(2-chlorophenyl)-3-[3-(2,4-difluorophenyl)ureido]-6-methylquinoline]	
75.7			O=C(Nc1cnc2ccc(Cl)cc2c1-c1ccccc1)Nc1c(F)cccc1F [Example 46, 6-chloro-3-[3-(2,6-difluorophenyl)ureido]-4-phenylquinoline]	
98			Cc1cc(C)c2ncc(NC(=O)Nc3c(C(C)C)cccc3C(C)C)c(-c3ccccc3Cl)c2c1 [Example 71, 4-(2-Chlorophenyl)-3-[3-(2,6-diisopropylphenyl)ureido]-6,8-dimethylquinoline]	
97.9			Cc1cc(C)c2ncc(NC(=O)Nc3cc(C)c(O)c(C)c3C)c(-c3ccccc3Cl)c2c1 [Example 81, 4-(2-Chlorophenyl)-3-[3-(4-hydroxy-2,3,5-trimethylphenyl)ureido]-6,8-dimethylquinoline]	
97.9			CSc1ccccc1-c1c(NC(=O)Nc2ccc(F)cc2F)cnc2ccc(Cl)cc12 [Example 52, 6-Chloro-3-[3-(2,4-difluorophenyl)ureido]-4-(2-methylthiophenyl)quinoline]	
